Results from patent US12268674B2, “Mi-2β inhibitor as an immunotherapy agent” (BioVentures, LLC, priority 2021, dated 2025).

What was measured:
melanoma = conditions: clinical data; cited from earlier work
[1] = test system: Mi-2β function (CXCL9, CXCL10, IRF1 expression) in A375 cells; test: Cell-based assay of inhibitory activity on Mi-2β function, A375; conditions: summary of Table 3 (A375 and B16)
Protocol: The total RNA was extracted with QIAGEN RNeasy kit […] for cDNA synthesis with SuperScript II Reverse Transcriptase (Invitrogen). In total, 40 ng cDNA was used for quantitative real-time PCR amplification by TaqMan Gene Expression Master Mix (Thermo Fisher Scientific). The relative transcript levels were normalized with GAPDH expression. The data were calculated with the comparative CT method.

[2] = target: T1, recombinant purified human Mi-2β protein (Homo sapiens, UniProt Q14839); test: FRET-based nucleosome repositioning assay (EpiDyne-FRET); assay type: biochemical; conditions: FRET-based nucleosome repositioning assay; read-out: IC50 against Mi-2β
T1 construct: made in house
Protocol: To screen small molecules that inhibit Mi-2β activity, Homology Modeling was carried out using Structure Prediction Wizard in Prime (49, 50). Mi-2β belongs to the CHD family of chromatin remodelers, which share highly conserved ATPase/helicase domains (51, 52). The Homology Model of Mi-2β was generated using the yeast CHD1 structure (PDB code: 3MWY) as template and the sequence was obtained from Uniprot (53), which clearly depicted the interaction of Mi-2β binding pocket and ATP (FIG. 10a). Virtual screening was done with the enzyme hinge region ligands database and nucleoside mimetic database from Enamine. All ligands of ˜23,010 compounds were docked to the ATP binding site using SP docking and post-processed with Prime MM-GBSA. Ligands with a methyldihydroimidazopyridinone structure were predicted to bind best to the ATP binding region of Mi-2β. To analyze biochemically the inhibitory activity of those inhibitors, a Fluorescence Resonance Energy Transfer (FRET)-based nucleosome repositioning assay (54, 55) was designed and modified using recombinant purified human Mi-2β protein to screen an in-house library of small molecular compounds with a methyldihydroimidazopyridinone structure (FIG. 10b). Briefly, the recombinant nucleosome substrates consist of a Cy5-labeled human histone octamer (H2A T120C-Cy5) wrapped with 5′ Cy3-labeled DNA, which contains a terminal nucleosome 601 positioning sequence. The 601 sequence provides the most thermodynamically preferred locations on DNA for histone octamer (56). FRET signaling was monitored by exciting the nucleosomes at the Cy3 absorption maximum and measuring Cy5 emissions and consequently the FRET signal is at a maximum at the assembled starting point. In the presence of ATP, Mi-2β induces the histone octamer to translocate along the DNA such that the Cy3-labeled DNA 5′ end is moved away from the Cy5-labeled octamer and consequently the FRET signal is decreased (FIG. 10b). The reaction conditions for nucleosome repositioning were modified through multiple rounds of optimization and validation (FIG. 10c-d). […]

T1 sequence (Q14839 whole entry): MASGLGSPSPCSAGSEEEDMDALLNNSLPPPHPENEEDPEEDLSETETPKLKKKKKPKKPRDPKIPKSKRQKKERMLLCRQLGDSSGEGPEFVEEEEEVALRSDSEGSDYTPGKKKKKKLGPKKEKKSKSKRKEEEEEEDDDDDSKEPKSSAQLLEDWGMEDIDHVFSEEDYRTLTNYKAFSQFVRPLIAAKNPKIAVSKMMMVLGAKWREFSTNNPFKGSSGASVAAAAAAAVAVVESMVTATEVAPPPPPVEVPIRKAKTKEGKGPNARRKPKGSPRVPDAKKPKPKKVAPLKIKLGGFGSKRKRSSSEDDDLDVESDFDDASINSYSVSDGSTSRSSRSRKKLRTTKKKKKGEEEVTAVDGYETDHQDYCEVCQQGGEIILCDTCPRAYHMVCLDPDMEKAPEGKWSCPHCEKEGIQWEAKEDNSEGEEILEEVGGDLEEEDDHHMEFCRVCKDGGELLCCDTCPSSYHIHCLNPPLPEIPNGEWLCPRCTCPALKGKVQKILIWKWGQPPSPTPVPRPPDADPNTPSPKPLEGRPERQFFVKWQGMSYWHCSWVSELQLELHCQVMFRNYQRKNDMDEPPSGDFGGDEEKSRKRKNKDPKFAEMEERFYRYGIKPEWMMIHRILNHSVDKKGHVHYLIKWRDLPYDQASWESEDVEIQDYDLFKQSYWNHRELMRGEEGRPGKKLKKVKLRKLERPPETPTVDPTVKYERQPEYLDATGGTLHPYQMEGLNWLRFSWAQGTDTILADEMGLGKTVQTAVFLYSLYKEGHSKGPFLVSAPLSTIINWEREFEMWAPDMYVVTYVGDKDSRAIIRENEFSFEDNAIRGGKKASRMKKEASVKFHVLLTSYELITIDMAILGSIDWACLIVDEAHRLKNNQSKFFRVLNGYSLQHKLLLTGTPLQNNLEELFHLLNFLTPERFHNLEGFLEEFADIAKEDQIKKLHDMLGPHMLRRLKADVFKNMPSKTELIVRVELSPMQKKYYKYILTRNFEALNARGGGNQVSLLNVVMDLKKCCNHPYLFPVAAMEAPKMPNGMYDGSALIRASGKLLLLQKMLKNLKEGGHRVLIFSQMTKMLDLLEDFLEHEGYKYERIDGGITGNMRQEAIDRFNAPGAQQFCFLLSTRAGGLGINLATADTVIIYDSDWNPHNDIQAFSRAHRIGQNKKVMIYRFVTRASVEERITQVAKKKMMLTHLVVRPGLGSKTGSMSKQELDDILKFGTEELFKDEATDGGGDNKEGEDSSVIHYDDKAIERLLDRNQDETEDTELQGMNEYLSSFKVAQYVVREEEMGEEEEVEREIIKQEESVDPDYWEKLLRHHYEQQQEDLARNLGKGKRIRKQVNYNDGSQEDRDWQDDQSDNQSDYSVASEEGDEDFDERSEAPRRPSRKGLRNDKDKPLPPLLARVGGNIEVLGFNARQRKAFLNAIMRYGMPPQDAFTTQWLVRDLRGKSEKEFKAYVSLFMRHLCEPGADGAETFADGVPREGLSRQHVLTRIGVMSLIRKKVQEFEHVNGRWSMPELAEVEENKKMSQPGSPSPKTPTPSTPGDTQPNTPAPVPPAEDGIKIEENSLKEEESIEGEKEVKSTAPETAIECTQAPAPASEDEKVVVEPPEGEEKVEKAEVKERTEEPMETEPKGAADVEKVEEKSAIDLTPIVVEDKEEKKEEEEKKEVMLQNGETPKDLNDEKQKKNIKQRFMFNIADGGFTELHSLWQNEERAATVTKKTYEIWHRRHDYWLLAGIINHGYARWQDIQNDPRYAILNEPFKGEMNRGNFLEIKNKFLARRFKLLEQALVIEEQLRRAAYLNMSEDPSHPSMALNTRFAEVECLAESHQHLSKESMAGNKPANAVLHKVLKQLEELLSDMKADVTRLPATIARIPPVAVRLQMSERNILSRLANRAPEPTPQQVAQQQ

Molecule | melanoma patients that respond (melanoma) [%] | inhibitory activity on Mi-2β function (enhanced expression of IFN-γ-responsive genes) [1] | IC50 [2] [µM]
pembrolizumab: anti-PD-1 antibody | 33 |  | 
O=C(NC1CCn2ccnc2C1)c1cccc(-c2cnc3[nH]c(=O)n(Cc4cccc(C(F)(F)F)c4)c3c2)c1 (stereo not shown) [ZW-7-059] |  | high inhibitory activity | 
Cn1c(=O)n(C)c2ncc(-c3cccc(C(=O)NC4CCn5ccnc5C4)c3)cc21 (stereo not shown) [ZW-7-023] |  | high inhibitory activity | 
Cc1c(C(=O)NC2CCn3ccnc3C2)cccc1-c1cnc2[nH]c(=O)n(C)c2c1 (stereo not shown) [SJW-6-004] |  | high inhibitory activity | 
ipilimumab: anti-CTLA-4 antibody | 20 |  | 
Cn1c(=O)[nH]c2ncc(-c3cccc(C(=O)NC4CCn5ccnc5C4)c3)cc21 (stereo not shown) [Z36] |  | high inhibitory activity | 6.97 ± 2.07
